Test: in vitro
Details: human, hela cells, % viability

| SMILES | viability at 28.5 h, 10 µM [%] | viability at 28.5 h, 10 µM (bulk resorufin, single well) [%] |
| --- | --- | --- |
| CCC(C)C(NC(=O)Cc1c[nH]c2ccccc12)C(=O)O (stereo not drawn) [CBK286720] | 91 |  |
| COc1ccccc1CNC(=O)N[C@@H](CC(C)C)C(=O)O [CBK286722] | 92.9 |  |
| COc1ccc(C(CNC(=O)C(=O)Nc2ccc(C(=O)O)cc2)N(C)C)cc1 (stereo not drawn) [CBK286724] | 119 |  |
| CCC(C)[C@H](NC(=O)N1CCN(C(=O)c2cc3ccccc3[nH]2)CC1)C(=O)O (stereo partly drawn) [CBK286725] | 91 |  |
| O=C(O)c1ccc(CNC2CC(=O)N(c3ccc(F)cc3)C2=O)cc1 (stereo not drawn) [CBK286727] | 95.3 |  |
| COc1cc(/C=C/C(=O)NCc2ccc(C(=O)O)cc2)ccc1O [CBK286728] | 86.4 |  |
| CN1C(=O)NC(c2ccc(Br)cc2)C2=C1CN(c1cccc(C(=O)O)c1)C2=O (stereo not drawn) [CBK286729] | 84.3 |  |
| C[C@H](NC(=O)C1CCN(C(=O)OC(C)(C)C)CC1)C(=O)O [CBK286730] | 78.9 |  |
| O=C(O)C[C@]1(C(=O)NC2CCCCCC2)CC(/C=C/c2ccccc2)=NO1 [CBK286732] | 75.9 |  |
| COc1cccc(NC(=O)CC(CN2CCN(Cc3ccccn3)CC2)C(=O)O)c1 (stereo not drawn) [CBK286735] | 85.1 |  |
| COc1cc2c(cc1OC)C(c1ccc(C(=O)O)cc1)NCC2 (stereo not drawn) [CBK286738] | 90.2 |  |
| O=C(O)C(c1c[nH]c2ccccc12)N1CCOCC1 (stereo not drawn) [CBK286739] | 83.8 |  |
| CC(C)C[C@H](NC(=O)OC(C)(C)C)C(=O)N1CCC(C(=O)O)CC1 [CBK286742] | 80.6 |  |
| CSCC[C@H](NC(=O)Nc1ccc(N2CCC(C)CC2)cc1)C(=O)O [CBK286743] | 86 |  |
| CN1CCN(CC(CC(=O)Nc2ccccc2)C(=O)O)CC1 (stereo not drawn) [CBK286746] | 81.8 |  |
| O=C(O)/C=C/C(=O)N1N=C(c2ccc(F)cc2)CC12C(=O)Nc1ccccc12 (stereo not drawn) [CBK286747] | 88.9 |  |
| Cc1ccc(Oc2ccc(S(=O)(=O)N3CCOCC3)cc2C(=O)O)cc1 [CBK286748] | 90.4 |  |
| C[C@H](NC(=O)N1CCN(C(=O)CCCc2c[nH]c3ccccc23)CC1)C(=O)O [CBK286749] | 88 |  |
| CC(C)C[C@H](NC(=O)OC(C)(C)C)C(=O)NC[C@H]1CC[C@H](C(=O)O)CC1 [CBK286750] | 85.9 |  |
| COc1cc2oc(=O)c(CC(=O)N3CCCC(C(=O)O)C3)c(C)c2cc1Cl (stereo not drawn) [CBK286754] | 107 |  |
| CC(C)COc1ccc(C(CC(=O)O)C(=O)O)cc1 (stereo not drawn) [CBK286759] | 103 |  |
| CC1(C)SC2c3ccccc3C(=O)N2[C@@H]1C(=O)N1CCC(C(=O)O)CC1 (stereo partly drawn) [CBK286760] | 89.4 |  |

| SMILES | viability at 28.5 h, 10 µM [%] | viability at 28.5 h, 10 µM (bulk resorufin, single well) [%] |
| --- | --- | --- |
| CC(C)(C)OC(=O)N1Cc2ccccc2C[C@H]1C(=O)N1CCC(C(=O)O)CC1 [CBK286761] | 94.1 |  |
| Cc1c(CCC(=O)N2CCCC(C(=O)O)C2)c(=O)oc2c(C)c(O)ccc12 (stereo not drawn) [CBK286764] | 88.5 |  |
| O=C(O)[C@@H]1CCCN1C(=O)CCn1nnc2ccccc2c1=O [CBK286765] | 83.6 |  |
| CCC(CCC(=O)Nc1ccccc1Cl)C(=O)O (stereo not drawn) [CBK286767] | 86.8 |  |
| CC(=O)NCC12CC3CC(C1)CC(C(=O)O)(C3)C2 [CBK286768] | 93.8 |  |
| COc1ccc(-c2ccc(=O)n(CC(=O)NC(C(=O)O)c3ccccc3)n2)c(F)c1 (stereo not drawn) [CBK286769] | 97.3 |  |
| CC(C)[C@H](NC(=O)c1cc2cc(Cl)ccc2n1C)C(=O)N1CCC(C(=O)O)CC1 [CBK286771] | 107 |  |
| C[C@H](NC(=O)N1CCN(C(=O)CCc2c[nH]c3ccccc23)CC1)C(=O)O [CBK286774] | 97.7 |  |
| COc1ccc(-c2ccc(=O)n(CC(=O)NCc3ccc(C(=O)O)cc3)n2)c(F)c1 [CBK286776] | 91.5 |  |
| CSCC[C@H](NC(=O)c1cccc2c1-c1ccccc1C2=O)C(=O)O [CBK286781] | 95.5 |  |
| CN(C(=O)[C@H]1CCCC[C@H]1C(=O)O)C1CCS(=O)(=O)C1 (stereo partly drawn) [CBK286782] | 106 |  |
| CN(C)CCCn1c(=O)n(CC(=O)O)c(=O)c2c3c(sc21)CCC3 [CBK286783] | 110 |  |
| CC(=O)C1=C(O)C(=O)N(CCCC(=O)O)C1c1ccc(Br)cc1 (stereo not drawn) [CBK286784] | 115 |  |
| CC(C)(C)OC(=O)N1CCN(C(=O)N[C@@H](Cc2ccccc2)C(=O)O)CC1 [CBK286785] | 113 |  |
| O=C(CC(CN1CCCCC1)C(=O)O)Nc1cccc(O)c1 (stereo not drawn) [CBK286788] | 114 |  |
| O=C(CC(CN1CCN(CCO)CC1)C(=O)O)Nc1ccccc1F (stereo not drawn) [CBK286790] | 86 |  |
| O=C(O)c1ccc(N2CC(C(=O)Nc3ccc(F)cc3)CC2=O)cc1 (stereo not drawn) [CBK286794] | 85.3 |  |
| CC1(C)CCCC2=C1CC(C(=O)O)C(C(=O)NCc1cccnc1)C2 (stereo not drawn) [CBK286795] | 83.3 |  |
| CCCCC(NS(=O)(=O)Cc1ccccc1)C(=O)O (stereo not drawn) [CBK286798] | 91.1 |  |
| Cc1ccc(CN(C(=O)/C=C/C(=O)O)C(C)(C)C)cc1 [CBK286799] | 91.5 |  |
| O=C(CC(CN1CCN(Cc2ccccn2)CC1)C(=O)O)Nc1ccc(F)cc1 (stereo not drawn) [CBK286800] | 86.8 |  |
| COc1cccc(NC(=O)CC(CN2CCN(CCC#N)CC2)C(=O)O)c1 (stereo not drawn) [CBK286801] | 86.1 |  |

| SMILES | viability at 28.5 h, 10 µM [%] | viability at 28.5 h, 10 µM (bulk resorufin, single well) [%] |
| --- | --- | --- |
| CC(=O)N1CCN(c2ccccc2NC(=O)Cc2ccccc2C(=O)O)CC1 [CBK286802] | 87.6 |  |
| Cn1c(=O)c2c(nc(N3CCN(c4cccc(Cl)c4)CC3)n2CC(=O)O)n(C)c1=O [CBK286803] | 87.7 |  |
| Cc1c(C(=O)O)sc2ncn(CCOc3ccc(Cl)cc3)c(=O)c12 [CBK286808] | 88.5 |  |
| O=C(CC(CN1CCN(c2ccccn2)CC1)C(=O)O)NC1CCCCC1 (stereo not drawn) [CBK286812] | 87.7 |  |
| COc1cccc(N2CCN(CC(CC(=O)Nc3ccccc3)C(=O)O)CC2)c1 (stereo not drawn) [CBK286813] | 89.8 |  |
| CC(=O)NC(CSc1cc(C)nc2ccc(F)cc12)C(=O)O (stereo not drawn) [CBK286815] | 91.7 |  |
| CCOc1ccccc1N1CCN(C(C(=O)O)c2c[nH]c3ccc(CO)cc23)CC1 (stereo not drawn) [CBK286816] | 90.1 |  |
| Cc1cc(C(F)(F)F)nn1CCC(=O)Nc1cnn(C)c1C(=O)O [CBK286817] | 98.4 |  |
| COc1cccc(OCC(=O)Nc2ccccc2C(=O)O)c1 [CBK286819] | 85.9 |  |
| Cc1noc(C)c1CN1CCN(CC(CC(=O)Nc2ccc(F)cc2)C(=O)O)CC1 (stereo not drawn) [CBK286821] | 90.5 |  |
| C=C(C)CN1CCN(CC(CC(=O)NCc2ccccc2)C(=O)O)CC1 (stereo not drawn) [CBK286823] | 98.1 |  |
| O=C(O)C(c1c[nH]c2cc(F)ccc12)N1CCN(CC(=O)N2CCOCC2)CC1 (stereo not drawn) [CBK286825] | 86.5 |  |
| CC(c1ccccc1)C(CC(=O)O)C(=O)NCc1ccccc1 (stereo not drawn) [CBK286830] | 101 |  |
| COc1ccc(NC(=O)CC(CN2CCN(c3ccc(Cl)cc3)CC2)C(=O)O)cc1 (stereo not drawn) [CBK286831] | 101 |  |
| Cc1n[nH]c2nc(-c3cc(Br)ccc3O)cc(C(=O)O)c12 [CBK286834] | 105 |  |
| O=C(O)CN1CCN(c2ncnc3sc4c(c23)CCCC4)CC1 [CBK286836] | 99.5 |  |
| Cc1nn(Cc2c(F)cccc2Cl)c(C)c1NC(=O)CCCC(=O)O [CBK286838] | 108 |  |
| CC(CC(=O)O)CC(=O)N1CCN(c2ccccn2)CC1 (stereo not drawn) [CBK286839] | 107 |  |
| O=C(O)[C@@H]1CCN(Cc2ccccc2)C[C@H]1c1ccccc1 [CBK286840] | 102 |  |
| Cc1cc(=O)c(O)c(CN2CCC(C(=O)O)CC2)o1 [CBK286843] | 87.6 |  |
| O=C(CC(CN1CCN(CC(=O)N2CCCC2)CC1)C(=O)O)Nc1ccccc1 (stereo not drawn) [CBK286844] | 87.9 |  |
| O=C(O)C(c1c[nH]c2cc(CO)ccc12)N1CCCN(c2ccc(C(F)(F)F)cn2)CC1 (stereo not drawn) [CBK286845] | 85.3 |  |

| SMILES | viability at 28.5 h, 10 µM [%] | viability at 28.5 h, 10 µM (bulk resorufin, single well) [%] |
| --- | --- | --- |
| COc1ccc2[nH]cc(C(C(=O)O)N3CCN(Cc4ccccn4)CC3)c2c1 (stereo not drawn) [CBK286846] | 80.5 |  |
| COc1ccc(C2C(C(=O)O)c3ccccc3C(=O)N2C)cc1 (stereo not drawn) [CBK286847] | 85.8 |  |
| O=C(O)C1C2CCC(O2)C1C(=O)NC1CCCCC1 (stereo not drawn) [CBK286848] |  | 85 |
| O=C(O)CC1CCN(c2ccc(C(F)(F)F)cn2)CC1 [CBK286850] | 90.4 |  |
| O=C(O)CCC(=O)N1CCN(Cc2ccc(Cl)cc2)CC1 [CBK286852] | 90 |  |
| O=C(CC(CN1CCN(Cc2cccnc2)CC1)C(=O)O)Nc1ccc(Cl)cc1 (stereo not drawn) [CBK286853] | 91.5 |  |
| COc1ccc(NC(=O)CC(CN(C)Cc2ccccc2)C(=O)O)cc1 (stereo not drawn) [CBK286854] | 93.5 |  |
| O=C(CC(CN1CCCN(c2ncccn2)CC1)C(=O)O)NCc1ccccc1 (stereo not drawn) [CBK286856] | 87.2 |  |
| COc1cccc2c(C(C(=O)O)N3CCN(c4ccc(C(F)(F)F)cn4)CC3)c[nH]c12 (stereo not drawn) [CBK286857] | 89.7 |  |
| Cc1noc(C)c1CN1CCN(CC(CC(=O)Nc2ccccc2)C(=O)O)CC1 (stereo not drawn) [CBK286858] | 83.2 |  |
| CCn1ncc(Cn2cc(NC(=O)C3CCCCC3C(=O)O)cn2)c1C (stereo not drawn) [CBK286859] | 98.9 |  |
| CC(C)C1C2CCCCC2=NN1C(=O)/C=C/C(=O)O (stereo not drawn) [CBK286862] | 93.1 |  |
| O=C(O)c1cccc(Nc2nc(Nc3ccccc3)nc(N3CCCC3)n2)c1 [CBK286863] | 89.8 |  |
| CN1CCN(CC(CC(=O)Nc2c(F)cccc2F)C(=O)O)CC1 (stereo not drawn) [CBK286867] | 92 |  |
| C[C@@H]1C[C@H](C)CN(C(C(=O)O)c2c[nH]c3ccccc23)C1 (stereo partly drawn) [CBK286868] | 94.3 |  |
| CC(C)(O)C#Cc1ccc(C(=O)N2CCCC2C(=O)O)s1 (stereo not drawn) [CBK286869] | 79.5 |  |
| O=C(O)C(Cc1c[nH]cn1)N1C(=O)C2CC=C(Cl)CC2C1=O (stereo not drawn) [CBK286871] | 92.4 |  |
| Cc1nn(C)cc1CNC(=O)C1C2CCC(C2)C1C(=O)O (stereo not drawn) [CBK286875] | 89.3 |  |
| O=C(O)C1CC(=O)N(Cc2ccccc2)C1c1ccccc1 (stereo not drawn) [CBK286876] | 89.1 |  |
| Cc1cc(C)cc(/N=C2\NC(=O)C(CC(=O)O)S2)c1 (stereo not drawn) [CBK286878] | 91.4 |  |
| O=C(O)CCc1nc2[nH]c(C(F)F)cc(=O)n2n1 [CBK286880] | 98.6 |  |

From paper PMC12040169 (PLOS Biology, 2025)
